According to patent publication US8476197B2, “Aminopropenoates as fungicides” (priority 2009, dated 2013):
Marks after values point to notes of the source that are not given here.

Settings: pH 2.7

Row | SMILES | Log P
1 | CCOC(=O)C(C#N)=C(Nc1ccccc1SC)c1sccc1C(F)(F)F [Compound 369] | 4.01^[a]
2 | COC(=O)C(C#N)=C(NC(C)(C)c1ccccc1)c1cccnc1Cl [Compound 370] | 2.98^[a]
3 | COC(=O)C(C#N)=C(NC(C)c1ccncc1)c1cccnc1Cl (stereo not drawn) [Compound 371] | 1.24^[a]
4 | CCC(NC(=C(C#N)C(=O)OC)c1cccnc1Cl)c1cccc(Cl)c1 (stereo not drawn) [Compound 372] | 3.58^[a]
5 | COC(=O)C(C#N)=C(NC(C)c1ccccc1C)c1cccnc1Cl (stereo not drawn) [Compound 373] | 3.15^[a]
6 | COC(=O)C(C#N)=C(NC(C)c1ccc(Cl)cc1Cl)c1cccnc1Cl (stereo not drawn) [Compound 374] | 3.73^[a]
7 | COC(=O)C(C#N)=C(NC(C)c1ccccc1Cl)c1cccnc1Cl (stereo not drawn) [Compound 375] | 3.19^[a]
8 | CCC(NC(=C(C#N)C(=O)OC)c1cccnc1Cl)c1ccc(Cl)cc1 (stereo not drawn) [Compound 376] | 3.58^[a]
9 | COC(=O)C(C#N)=C(NC(C)c1cccc(OC)c1)c1cccnc1Cl (stereo not drawn) [Compound 377] | 2.89^[a]
10 | CCOc1ccc(C(C)NC(=C(C#N)C(=O)OC)c2cccnc2Cl)cc1 (stereo not drawn) [Compound 378] | 3.02^[a]
11 | COC(=O)C(C#N)=C(NC(C)c1ccc(C(C)C)cc1)c1cccnc1Cl (stereo not drawn) [Compound 379] | 4^[a]
12 | COC(=O)C(C#N)=C(NC1(c2c(F)cccc2F)CC1)c1cccnc1Cl [Compound 380] | 2.8^[a]
13 | COC(=O)C(C#N)=C(NC(c1ccc(Cl)cc1)C1CC1)c1cccnc1Cl (stereo not drawn) [Compound 381] | 3.58^[a]
14 | COC(=O)C(C#N)=C(NC1(c2ccccc2Cl)CC1)c1cccnc1Cl [Compound 382] | 2.61^[a]
15 | COC(=O)C(C#N)=C(NC1(c2cccc(Cl)c2)CC1)c1cccnc1Cl [Compound 383] | 3.11^[a]
16 | COC(=O)C(C#N)=C(NC1(c2ccc(Cl)cc2)CC1)c1cccnc1Cl [Compound 384] | 3.19^[a]
17 | COC(=O)C(C#N)=C(NC(C)(C)c1c(F)cccc1F)c1cccnc1Cl [Compound 385] | 2.98^[a]
18 | COC(=O)C(C#N)=C(NC(C)(C)c1ccc(OC)cc1)c1cccnc1Cl [Compound 386] | 3.02^[a]
19 | COC(=O)C(C#N)=C(NC(C)c1ccc(Cl)c(Cl)c1)c1cccnc1Cl (stereo not drawn) [Compound 387] | 3.58^[a]
20 | COC(=O)C(C#N)=C(NC(C)c1cc(Cl)cc(Cl)c1)c1cccnc1Cl (stereo not drawn) [Compound 388] | 3.68^[a]

Row | SMILES | Log P
21 | COC(=O)C(C#N)=C(NC(CC(F)(F)F)c1ccccc1)c1cccnc1Cl (stereo not drawn) [Compound 389] | 2.98^[a]
22 | COC(=O)C(C#N)=C(NC(c1cccc(Cl)c1)C1CC1)c1cccnc1Cl (stereo not drawn) [Compound 390] | 2.93^[a]
23 | CCC(NC(=C(C#N)C(=O)OC)c1cccnc1Cl)c1ccccc1OC (stereo not drawn) [Compound 391] | 3.15^[a]
24 | COC(=O)C(C#N)=C(NC(C)c1ccccc1OC)c1cccnc1Cl (stereo not drawn) [Compound 392] | 2.84^[a]
25 | COC(=O)C(C#N)=C(NC(C)(C)c1ccccc1Cl)c1cccnc1Cl [Compound 393] | 3.15^[a]
26 | COC(=O)C(C#N)=C(NC(C)c1cc(Cl)ccc1Cl)c1cccnc1Cl (stereo not drawn) [Compound 394] | 3.28^[a]
27 | COC(=O)C(C#N)=C(NC(C)c1ccc(C(F)(F)F)cc1)c1cccnc1Cl (stereo not drawn) [Compound 395] | 3.37^[a]
28 | COC(=O)C(C#N)=C(NC(C)c1cccc(C)c1)c1cccnc1Cl (stereo not drawn) [Compound 396] | 3.02^[a]
29 | COC(=O)C(C#N)=C(NC(C)c1ccc(F)cc1)c1cccnc1Cl (stereo not drawn) [Compound 397] | 2.89^[a]
30 | COC(=O)C(C#N)=C(NC(c1ccccc1)C1CC1)c1cccnc1Cl (stereo not drawn) [Compound 398] | 3.24^[a]
31 | COC(=O)C(C#N)=C(NC(C)(C)c1ccc(F)cc1)c1cccnc1Cl [Compound 399] | 2.98^[a]
32 | COC(=O)C(C#N)=C(NC(C)c1ccc(OC)c(OC)c1)c1cccnc1Cl (stereo not drawn) [Compound 400] | 2.34^[a]
33 | COC(=O)C(C#N)=C(NC(C)c1cccc(C(F)(F)F)c1)c1cccnc1Cl (stereo not drawn) [Compound 401] | 3.28^[a]
34 | COC(=O)C(C#N)=C(NC(C)c1ccc2c(c1)OCO2)c1cccnc1Cl (stereo not drawn) [Compound 402] | 2.53^[a]
35 | COC(=O)C(C#N)=C(NC(C)c1cccc(Cl)c1)c1cccnc1Cl (stereo not drawn) [Compound 403] | 3.19^[a]
36 | COC(=O)C(C#N)=C(NC(C)c1ccccc1)c1cccnc1Cl (stereo not drawn) [Compound 404] | 2.89^[a]
37 | CCC(NC(=C(C#N)C(=O)OC)c1cccnc1Cl)c1ccccc1 (stereo not drawn) [Compound 405] | 3.02^[a]
38 | COC(=O)C(C#N)=C(NC(C)c1ccc(C(C)(C)C)cc1)c1cccnc1Cl (stereo not drawn) [Compound 406] | 4.23^[a]
39 | CCc1ccc(C(C)NC(=C(C#N)C(=O)OC)c2cccnc2Cl)cc1 (stereo not drawn) [Compound 407] | 3.63^[a]
40 | COC(=O)C(C#N)=C(NC(C)c1ccc(OC)cc1)c1cccnc1Cl (stereo not drawn) [Compound 408] | 2.65^[a]

Row | SMILES | Log P
41 | COC(=O)C(C#N)=C(NC(C)c1ccc(C)cc1)c1cccnc1Cl (stereo not drawn) [Compound 409] | 3.28^[a]
42 | CCOC(=O)C(C#N)=C(Nc1ccccc1SC)c1c(C)nn(C)c1Cl [Compound 410] | 3.42^[a]
43 | CCOC(=O)C(C#N)=C(NC(C)c1ccc(Cl)cc1)c1ccsc1Br (stereo not drawn) [Compound 411] | 4.35^[a]
44 | CCOC(=O)C(C#N)=C(Nc1ccccc1SC)c1ccsc1Br [Compound 412] | 3.99^[a]
45 | CCOC(=O)C(C#N)=C(Nc1ccccc1SC)c1cc(C)oc1C [Compound 414] | 3.84^[a]
46 | CCOC(=O)C(C#N)=C(Nc1ccccc1SC(F)(F)C(F)(F)F)c1cc(C)oc1C [Compound 415] | 4.7^[a]
47 | CCOC(=O)C(C#N)=C(Nc1ccccc1SCC(F)(F)F)c1cc(C)oc1C [Compound 416] | 4.3^[a]
48 | CCOC(=O)C(C#N)=C(Nc1ccccc1S(C)(=O)=O)c1cc(C)oc1C [Compound 417] | 2.65^[a]
49 | CCOC(=O)C(C#N)=C(Nc1ccccc1SC(F)(F)C(F)Cl)c1cc(C)oc1C (stereo not drawn) [Compound 418] | 4.25^[a]
50 | CCOC(=O)C(C#N)=C(Nc1ccccc1Sc1ccc(C)cc1)c1cc(C)oc1C [Compound 419] | 5.08^[a]
51 | C=CCSc1ccccc1NC(=C(C#N)C(=O)OCC)c1cc(C)oc1C [Compound 420] | 4.25^[a]
52 | CCOC(=O)C(C#N)=C(Nc1ccccc1SC(C)C)c1cc(C)oc1C [Compound 421] | 4.57^[a]
53 | CCOC(=O)C(C#N)=C(Nc1ccccc1Br)c1cc(C)oc1C [Compound 422] | 3.99^[a]
54 | COC(=O)C(C#N)=C(NC(C)Cc1ccccc1C)c1cccnc1Cl (stereo not drawn) [Compound 423] | 3.23^[a]
55 | COC(=O)C(C#N)=C(NC(C)CCc1ccccc1)c1cccnc1Cl (stereo not drawn) [Compound 424] | 3.27^[a]
56 | COC(=O)C(C#N)=C(NC(C)CCc1cccc(C)c1)c1cccnc1Cl (stereo not drawn) [Compound 425] | 3.68^[a]
57 | COC(=O)C(C#N)=C(NC(C)Cc1ccccc1)c1cccnc1Cl (stereo not drawn) [Compound 426] | 2.98^[a]
58 | COC(=O)C(C#N)=C(NC(C)c1ccc(Cl)cc1)c1sc(C)nc1C(F)(F)F (stereo not drawn) [Compound 427] | 3.98^[a]
59 | COC(=O)C(C#N)=C(Nc1ccccc1SC)c1sc(C)nc1C(F)(F)F [Compound 428] | 3.46^[a]
60 | CCOC(=O)C(C#N)=C(NC(C)c1ccc(Cl)cc1)c1cn(C)nc1C(F)(F)F (stereo not drawn) [Compound 430] | 3.95^[a]
